Test results reported in PMC8528301 (PLoS ONE, 2021).
Values joined by “and” are separate entries in the source; they are usually repeats but may differ in a detail not shown here. Equal entries are not always repeated. Where two headings read alike, the source gives them in different places.

Columns and labels:
[1] = Plasma DEX concentrations on discontinuous oral DEX regimen in drinking water (Fig 3); type: in vivo, mouse; details: for concentration at 3.5 day / concentration at 10.5 day / concentration at 17.5 day: C57BL/6, mouse, oral, 8 mg/L, Dexamethasone conc; for observed systemic (plasma) concentrations of DEX, range: mice on the discontinuous DEX regimen
Protocol: 1 g/L of tetracycline (Sigma-Aldrich Inc, St. Louis, MO, USA) was added during both phases. Assuming that mice drink 5 mL of water per day, the dose they receive would be 1.6–2 mg/kg/day. […] At the end of in vivo procedures, all plasma samples were transferred from dry ice and stored at –80°C until analysis.
Sidak’s multiple comparison test (**p<0.01, ****p<0.0001) was used to further analyze the effect of vitamin D status at each time point.

[2] = tested on: BCR-ABL Arf-/- Luc+ ALL cells; experiment: Survival study of mice with BCR-ABL Arf-/- leukemia on discontinuous DEX regimen; type: in vivo, mouse; details: for median survival time: BCR-ABL Arf-/- ALL, discontinuous DEX
From the text: Murine BCR-ABL Arf^-/- Luc^+ ALL cells were created by Dr. Charles Sherr (St. Jude Children’s Research Hospital) and provided immediately prior to mouse injection by the laboratory of Dr. Mary Relling (St. Jude Children’s Research Hospital). The cells had been tested for mycoplasma and were authenticated by flow cytometry for cell surface markers, tested for their leukemia-inducing capabilities with serial dilutions of cell numbers (from 2 million down to 2,000 cells), and ensured that the cells with the luciferase constructs produced light when combined with luciferin. Only cells from early passage (P3-P15) were used for these experiments. The St Jude Children’s Research Hospital Institutional Biosafety Committee and IACUC approved the use of these cells for injection into mice. C57BL/6 VD3 sufficient (n = 24) and deficient (n = 22) male mice (8–18 wk of age) were anaesthetized using isoflurane and injected iv with 2,000 BCR-ABL Arf^-/- Luc^+ ALL cells on day zero. […] Xenogen IVIS-200 (Caliper Life Sciences, Hopkinton, MA) was used to acquire bioluminescent images 5 minutes post-intra peritoneal injection of 200 μL of 100 mg/kg D-Luciferin (Caliper Life Sciences, Hopkinton, MA). Mice were anaesthetized with isoflurane during this procedure. The bioluminescent signal (photons/s) from a fixed region of interest (ROI) is used to monitor the disease progression twice every week. Images acquired here were analyzed using Living Image 3.1 software (Caliper Life Sciences), where whole body luciferase flux measurements (photons/s) were quantified as disease burden. Animal Welfare: All efforts were taken to minimize suffering and distress in the survival studies. […] All other mice in the survival study were euthanized within hours of reaching the humane end point/end of study = moribund for any reason which was determined based on hind limb paralysis (very typically observed in mice with BCR-ABL ALL), scruffy coat, lethargy or an inability to obtain food or water (SJ IACUC protocol #100468–613). A portion of spleen and hind limb were fixed, paraffin embedded, cut, and slides stained with hematoxylin and eosin and evaluated by a St Jude Pathologist (Dr. Laura Janke) to confirm leukemia was the cause of death.

in vivo = details: female, C57BL/6, mouse, plasma, po, 2 mg/kg
Protocol: Blood was collected via saphenous/retro-orbital vein at time points: 0.25, 0.75, 0.5, 1, 1.5, 2, 4, 8, 16 hours after treatment. Three sets of mice were used for this experiment, where set 1 was sampled at 2,4,8 hr; set 2 at 0.25, 0.75, 1.5 hr; set 3 at 0.5, 1 and 16 hr. Samples were centrifuged at 10,000 rpm for 2 minutes, plasma was removed and stored at -80°C until further analysis.
Briefly, parameters and the Fisher Information Matrix (FIM) were estimated using the stochastic approximation expectation maximization (SAEM) algorithm, and the final log-likelihood estimated with importance sampling, all using the default Monolix initial settings, except that 1000 iterations were permitted for estimation of FIM using stochastic approximation. A variety of models were fit to the respective compound’s Ct data, parameterized using apparent clearances, volumes of distribution, and absorption rate constant as needed. […] A log-normal inter-individual and inter-occasion parameter distribution was assumed on selected supported parameters, with both on- and off-diagonal elements of parameter covariance matrices tested. Additive and/or proportional error models were tested and implemented as supported. Beal’s M3 method was used to fit any data that were below the LLOQ or above the upper limit of the assay range [20]. […] Additionally, Wald test P values were outputted for each covariate effect by the Monolix software.
Additionally, Wald test P values were outputted for each covariate effect by the Monolix software.

GCR = details: read-out: GCR EC50; printed in Fig 9; ref J Biol Chem. 2002 Jan 11; PMID: 11682470; cited from earlier work
[3] = Dasatinib disposition in bile duct cannulated rats (literature); type: in vivo, rat
[4] = cited from earlier work; for Tmax: oral dosing
CYP3A4 = tested on: CYP3A4; set-up: method as in PMID 19282395; details: cited from earlier work

## C[C@@H]1C[C@H]2[C@@H]3CCC4=CC(=O)C=C[C@]4(C)[C@@]3(F)[C@@H](O)C[C@]2(C)[C@@]1(O)C(=O)CO [DEX, dexamethasone]
[1]; discontinuous DEX in drinking water, assuming mice drink 200–400 μl/hr
  estimated Cgut (gut concentration): 7 to 10 µM and 7.6 to 10.1 µM
[1]; female, plasma, avg, VD3 deficient, D3.5, n=5
  concentration at 3.5 day: 78 nM
[1]; female, plasma, avg, VD3 deficient, D10.5, n=4
  concentration at 10.5 day: 63 nM
[1]; female, plasma, avg, VD3 deficient, D17.5, n=4
  concentration at 17.5 day: 58.5 nM
[1]; female, plasma, avg, VD3 sufficient, D3.5, n=5
  concentration at 3.5 day: 99.3 nM
[1]; female, plasma, avg, VD3 sufficient, D10.5, n=4
  concentration at 10.5 day: 52.7 nM
[1]; female, plasma, avg, VD3 sufficient, D17.5, n=5
  concentration at 17.5 day: 38.7 nM
[1]; female, plasma, individual mouse, VD3 deficient (GCD), D10.5
  concentration at 10.5 day: 58.6 nM
[1]; female, plasma, individual mouse, VD3 sufficient (MRE), D3.5
  concentration at 3.5 day: 95.6 nM
[1]; female, plasma, individual mouse, VD3 sufficient (MRE), D10.5
  concentration at 10.5 day: 49.9 nM
[1]; male, plasma, avg, plasma, male, VD3 deficient, day 3.5, n=8
  concentration at 3.5 day: 31.7 nM
[1]; male, plasma, avg, plasma, male, VD3 deficient, day 10.5, n=13
  concentration at 10.5 day: 25.3 nM
[1]; male, plasma, avg, plasma, male, VD3 deficient, day 17.5, n=13
  concentration at 17.5 day: 13.1 nM
[1]; male, plasma, avg, plasma, male, VD3 sufficient, day 3.5, n=11
  concentration at 3.5 day: 12.4 nM
[1]; male, plasma, avg, plasma, male, VD3 sufficient, day 10.5, n=11
  concentration at 10.5 day: 18 nM
[1]; male, plasma, avg, plasma, male, VD3 sufficient, day 17.5, n=11
  concentration at 17.5 day: 13.3 nM
[1]
  observed systemic (plasma) concentrations of DEX, range: 2.6 to 201.5 nM
[1]; listed as Dexamethasone
  observed systemic (plasma) concentrations of DEX, range: 2 to 200 nM
[1]; plasma, female, VD3 deficient (GCD), D3.5
  Dexamethasone conc, individual mouse: 88.42 nM and 34.10 nM and 126.21 nM and 104.66 nM and 36.85 nM
[1]; plasma, female, VD3 deficient (GCD), D10.5
  Dexamethasone conc, individual mouse: 55.47 nM and 71.15 nM and 66.95 nM
[1]; plasma, female, VD3 deficient (GCD), D17.5
  Dexamethasone conc, individual mouse: 84.72 nM and 78.40 nM and 26.56 nM and 44.39 nM
[1]; plasma, female, VD3 sufficient (MRE), D3.5
  Dexamethasone conc, individual mouse: 94.88 nM and 116.14 nM and 126.22 nM and 63.45 nM
[1]; plasma, female, VD3 sufficient (MRE), D10.5
  Dexamethasone conc, individual mouse: 50.92 nM and 57.26 nM
[1]; plasma, female, VD3 sufficient (MRE), D17.5
  Dexamethasone conc, individual mouse: 24.99 nM and 23.28 nM and 21.33 nM and 61.18 nM and 62.62 nM
[1]; plasma, male, VD3 deficient (GCD), 3.5 Days, discontinuous DEX in drinking water
  Dexamethasone conc, individual mouse: 28.49 nM and 21.78 nM and 23.16 nM and 14.22 nM and 52.94 nM and 69.07 nM and 12.19 nM
[1]; plasma, male, VD3 deficient (GCD), 10.5 Days
  Dexamethasone conc, individual mouse: 24.64 nM and 18.60 nM and 35.12 nM and 50.14 nM and 22.77 nM and 19.09 nM and 13.20 nM and 32.61 nM and 4.50 nM and 20.98 nM and 51.76 nM and 9.92 nM
[1]; plasma, male, VD3 deficient (GCD), 17.5 Days
  Dexamethasone conc, individual mouse: 7.03 nM and 9.03 nM and 37.95 nM and 11.09 nM and 12.27 nM and 10.43 nM and 10.75 nM and 8.20 nM and 7.99 nM and 10.52 nM and 14.43 nM and 17.77 nM
[1]; plasma, male, VD3 deficient, day 3.5, n=8
  Dexamethasone conc, avg: 31.70 nM
[1]; plasma, male, VD3 sufficient (MRE), 3.5 Days
  Dexamethasone conc, individual mouse: 10.97 nM and 6.41 nM and 7.05 nM and BLQ (BLQ = BELOW the LLOQ, lower lmit of quantification = 5 nM dexamethasone) and 3.62 nM and 34.11 nM
[1]; plasma, male, VD3 sufficient (MRE), 10.5 Days
  Dexamethasone conc, individual mouse: 56.24 nM and 2.95 nM and 2.63 nM and 10.01 nM and 12.14 nM and BLQ (BLQ = BELOW the LLOQ, lower lmit of quantification = 5 nM dexamethasone) and 34.37 nM and 7.89 nM
[1]; plasma, male, VD3 sufficient (MRE), 17.5 Days
  Dexamethasone conc, individual mouse: 9.70 nM and 6.19 nM and 17.34 nM and 10.75 nM and 11.40 nM and 11.09 nM and 17.17 nM and 6.62 nM and 29.23 nM
[2]; DEX-treated VD3 deficient male mice
  median survival time: 59 days
[2]; DEX-treated VD3 sufficient male mice
  median survival time: 36 days
[2]; VD3 Deficient, days survived 0
  Survival proportions: 100
[2]; VD3 Deficient, days survived 22
  Survival proportions: 90.5
[2]; VD3 Deficient, days survived 24
  Survival proportions: 85.7
[2]; VD3 Deficient, days survived 32
  Survival proportions: 81
[2]; VD3 Deficient, days survived 36
  Survival proportions: 76.2
[2]; VD3 Deficient, days survived 38
  Survival proportions: 71.4
[2]; VD3 Deficient, days survived 48
  Survival proportions: 61.9
[2]; VD3 Deficient, days survived 55
  Survival proportions: 57.1
[2]; VD3 Deficient, days survived 59
  Survival proportions: 47.6
[2]; VD3 Sufficient, days survived 0
  Survival proportions: 100
[2]; VD3 Sufficient, days survived 15
  Survival proportions: 90.9
[2]; VD3 Sufficient, days survived 22
  Survival proportions: 86.4
[2]; VD3 Sufficient, days survived 23
  Survival proportions: 81.8
[2]; VD3 Sufficient, days survived 25
  Survival proportions: 72.7
[2]; VD3 Sufficient, days survived 32
  Survival proportions: 63.6
[2]; VD3 Sufficient, days survived 34
  Survival proportions: 59.1
[2]; VD3 Sufficient, days survived 35
  Survival proportions: 54.5
[2]; VD3 Sufficient, days survived 37
  Survival proportions: 45.5
[2]; VD3 Sufficient, days survived 38
  Survival proportions: 40.9
[2]; VD3 Sufficient, days survived 48
  Survival proportions: 27.3
[2]; VD3 Sufficient, days survived 55
  Survival proportions: 22.7
[2]; VD3 Sufficient, days survived 59
  Survival proportions: 18.2
In vivo
  concentration at 2 h: 676 ng/mL
GCR
  EC50: 0.011 µM

## Cc1nc(Nc2ncc(C(=O)Nc3c(C)cccc3Cl)s2)cc(N2CCN(CCO)CC2)n1 [dasatinib]
[3]; bile duct cannulated rats, inferred from unchanged drug
  percentage absorbed: 67%
[3]; rats
  share of absorbed drug that might undergo hepatic metabolism: 60%
  share of total drug that might undergo hepatic metabolism: at least 40%
[4]; mice
  bioavailability: 17%
[4]; one study, species not given
  bioavailability: 45–51%
[4]; Mdr1a wild-type and KO mice
  Tmax: 0.25 h
[4]; nude female nude mice
  Tmax: 2 h
CYP3A4
  K(inact), CYP3A4 mechanism-based inactivation: 0.034 min (-1)
CYP3A4; read-out: K(I), CYP3A4 mechanism-based inactivation
  KI (inactivation): 6.3 µM
